# Assay results reported in US6919306B2, “Method of skin care” (Yaizu Suisankagaku Industry Co. Ltd., priority 1999, dated 2005).
# Marks after values point to notes of the source that are not given here.
# Key:
# [1] = Solubility of natural-type NAG in water; format: physicochemical; conditions: water of 25° C.
# Text: In the present invention, as a carrier for the skin care agent, foods such as confectioneries, powdered soups, dairy products and beverages, may, for example, be mentioned. As such foods, specifically, gum, candies, tabletted confectioneries, chocolate, jelly, cookies, snacks, corn potage soup, consomme soup, milk, pudding, yogurt, ice cream, lactic acid beverages, alcohol beverages, vitamin beverages, mineral beverages, coffee beverages, near water, nutrition drinks, and the like, may be mentioned.
# [2] = tested on: skin conditions of adult female volunteers; assay: Questionnaire on skin conditions after tablet ingestion; format: in vivo, human; conditions: NAG 1.2 g per day oral tablets, 60 days
# Method: 20 adult female volunteers of age ranging from 25 to 45 years old were classified into two groups i.e. a test group and a control group. They were asked to take tablets prepared similarly as in Example 1 as described below at a rate of […], twice a day (NAG ingestion amount per day: 1.2 g) together with water, provided that the tablets for the control group were prepared by using lactose as a placebo instead of NAG. The test period was 60 days, and after the completion of test, they were questioned about skin conditions and the like by questionnaires. No particular restriction was made with respect to diet, makeup and the like during the test period.
# [3] = tested on: females having a tendency of xeroderma and rough skin; assay: Dermatologic examination and doctor's questions, double blind long-term ingestion study; format: in vivo, human; conditions: for Face, Cosmetic dermatitis, average score / Face, Spread of cosmetics, average score / Whole body, Desquamation, average score / Whole body, Erosion, average score / Whole body, Flushing, average score / Whole body, Papula, average score / Whole body, Pruritus, average score / Whole body, Vesicle, average score / Face, Dessication, average score / Face, Flushing, average score / General observation, average score / Whole body, Dessication, average score: NAG 1,000 mg/day oral
# Method: (§1) To 22 females usually having a tendency of xeroderma and rough skin (average age: 25.5±10.7), a double blind long-term ingestion study was carried out in the following manners provided that a […] were given to a control group.
# (§2) NAG-containing tablets-administered group (NAG group, n=11): Tablets prepared similarly as in Example 1 as described below (NAG amount: 200 mg/tablet), were ingested at a rate of 5 tablets/day (NAG 1,000 mg/day, as a daily dose).
# Placebo-administered group (Placebo group, n=11): Tablets prepared similarly provided that lactose was used instead of NAG, were ingested at a rate of 5 tablets/day.
# (§3) The ingestion period was 8 weeks in each group. The inspection was in principle carried out just before the start of ingestion, 4 weeks after the start of ingestion, and just before the completion of ingestion (8 weeks after the start of ingestion).
# In the observation of whole body, 4 ranks evaluation (0: no symptom, 1: slight, 2: medium, 3: severe) was conducted with respect to pruritus, desiccation, flushing, erosion, desquamation, papula, vesicle and tumefaction. In the observation of face, 4 ranks evaluation was similarly conducted with respect to cosmetic dermatitis, desiccation, flushing and spread of cosmetics. Further, amelioration of general symptom including the observations of the whole body and face, was evaluated as a general observation. These evaluations were conducted by a plurality of doctors designated by Japan Dermatologic Science Society. The results are shown in Table 3 (average value of each score of each group).
# [4] = tested on: moisture content of epidermis; assay: Skin moisture content by Corneometer CM825; format: in vivo, human; conditions: for Moisture content, Left upper arm / Moisture content, Poll / Moisture content, Below left eye: NAG 1,000 mg/day oral
# Method: as §1, §2, §3
# The moisture content was measured by using Corneometer CM825 (manufactured by Courage+Khazaka Electronic Gmbh). This apparatus measures the moisture content of epidermis by measuring the electrostatic capacity via corneal layer, and is known to be less in error as compared with a conventional impedance method or infrared spectrophotometric method.
# (§4) Measurement sites were 1 cm below the left eye, medial part of left upper arm (3 cm above the elbow), and poll (3 cm below spinous process of neck). With respect to the oil and fat content, since most subjects were scored at 0 at the left upper arm and the poll, only the site below the left eye was measured from the 2nd inspection.
# (§5) In order to keep the environments for the measurements as equal as possible, a room having its internal conditions adjusted to be constant was prepared before the measurements (room temperature: 18 to 20° C., humidity: 45 to 60%), and the subjects were asked to keep in rest in this room for at least 30 minutes. Further, with respect to the makeup at the measurement site, it was in principle prohibited to put on makeup from 60 minutes before the inspection.
# skin surface acidity = assay: Skin acidity (pH) by PH 900; format: in vivo, human; conditions: NAG 1,000 mg/day oral
# Method: as §1, §2, §3
# The acidity was measured by using PH 900 (manufactured by Courage+Khazaka Electronic Gmbh). In use of this apparatus, an electrode is contacted to a skin surface through an ion-permeable membrane neighboring to a glass membrane and the acidity can be measured without electrochemical invasion. In this connection, the optimum pH of female's skin is about 5.5.
# as §4, §5
# [5] = after 4 weeks, score 0-3, p < 0.05
# [6] = after 8 weeks, score 0-3, p < 0.05
smiles,measurement,setting,value
"CC(=O)N[C@H]1C(O)O[C@H](CO)[C@@H](O)[C@@H]1O (stereo partly drawn) [NAG, N-acetylglucosamine]",solubility in water,[1],32 % by weight
same,skin-beautification effect,[2]; versus placebo region,recognized
same,Fine wrinkles decreased (number of persons),"[2]; test region, placebo 1",5
same,Skin conditions worsened as a whole (number of persons),"[2]; test region, placebo 1",0
same,Feel moistness in skin (number of persons),"[2]; test region, placebo 2",7
same,Feel tension in skin (number of persons),"[2]; test region, placebo 2",6
same,Skin conditions improved as a whole (number of persons),"[2]; test region, placebo 2",8
same,No change (including unidentified) (number of persons),"[2]; test region, placebo 5",2
same,"Face, Cosmetic dermatitis, average score","[3]; after 4 weeks, score 0-3",1.00
same,"Face, Spread of cosmetics, average score","[3]; after 4 weeks, score 0-3",1.33
same,"Whole body, Desquamation, average score","[3]; after 4 weeks, score 0-3",1.33
same,"Whole body, Erosion, average score","[3]; after 4 weeks, score 0-3",1.00
same,"Whole body, Flushing, average score","[3]; after 4 weeks, score 0-3",0.80
same,"Whole body, Papula, average score","[3]; after 4 weeks, score 0-3",1.50
same,"Whole body, Pruritus, average score","[3]; after 4 weeks, score 0-3",0.90
same,"Whole body, Vesicle, average score","[3]; after 4 weeks, score 0-3",2.00
same,"Face, Dessication, average score","[3]; after 4 weeks, score 0-3, p < 0.01",1.18**
same,"Face, Flushing, average score",[3]; [5],1.10*
same,"General observation, average score",[3]; [5],1.27*
same,"Whole body, Dessication, average score",[3]; [5],1.36*
same,"Face, Cosmetic dermatitis, average score","[3]; after 8 weeks, score 0-3",1.33
same,"Whole body, Desquamation, average score","[3]; after 8 weeks, score 0-3",1.00
same,"Whole body, Erosion, average score","[3]; after 8 weeks, score 0-3",0.00
same,"Whole body, Flushing, average score","[3]; after 8 weeks, score 0-3",0.40
same,"Whole body, Papula, average score","[3]; after 8 weeks, score 0-3",1.50
same,"Whole body, Pruritus, average score","[3]; after 8 weeks, score 0-3",0.60
same,"Whole body, Vesicle, average score","[3]; after 8 weeks, score 0-3",2.00
same,"Face, Dessication, average score",[3]; [6],1.00*
same,"Face, Flushing, average score",[3]; [6],1.10*
same,"Face, Spread of cosmetics, average score",[3]; [6],0.83*
same,"General observation, average score",[3]; [6],1.09*
same,"Whole body, Dessication, average score",[3]; [6],1.00*
same,"Face, Dessication, average score","[3]; before ingestion, score 0-3",2.00
same,"Face, Flushing, average score","[3]; before ingestion, score 0-3",1.80
same,"Face, Spread of cosmetics, average score","[3]; before ingestion, score 0-3",1.83
same,"General observation, average score","[3]; before ingestion, score 0-3",1.82
same,"Whole body, Desquamation, average score","[3]; before ingestion, score 0-3",1.33
same,"Whole body, Dessication, average score","[3]; before ingestion, score 0-3",2.09
same,"Whole body, Erosion, average score","[3]; before ingestion, score 0-3",2.00
same,"Whole body, Flushing, average score","[3]; before ingestion, score 0-3",1.40
same,"Whole body, Papula, average score","[3]; before ingestion, score 0-3",1.00
same,"Whole body, Pruritus, average score","[3]; before ingestion, score 0-3",1.40
same,"Whole body, Vesicle, average score","[3]; before ingestion, score 0-3",1.00
same,"Face, Cosmetic dermatitis, average score","[3]; before ingestion, score 0 no symptom to 3 severe",1.00
same,"symptom of whole body: ""dessication""","[3]; NAG group, 1,000 mg/day oral, 8 weeks, also significant in placebo group",significant improvements
same,"symptoms of face: ""dessication"", ""flushing"" and ""spread of cosmetics""","[3]; NAG group, 1,000 mg/day oral, 8 weeks, placebo no significance",significant improvements
same,general observation,"[3]; NAG group, 1,000 mg/day oral, 8 weeks, placebo no significant improvement",significant improvements
same,"Moisture content, Left upper arm",[4]; after 4 weeks,38.7 ± 5.8
same,"Moisture content, Poll",[4]; after 4 weeks,51.9 ± 5.4
same,"Moisture content, Below left eye","[4]; after 4 weeks, p < 0.05",58.8 ± 14.2
same,"Moisture content, Left upper arm",[4]; after 8 weeks,36.2 ± 6.8
same,"Moisture content, Poll",[4]; after 8 weeks,52.1 ± 10.9
same,"Moisture content, Below left eye","[4]; after 8 weeks, p < 0.01",56.2 ± 8.4
same,"Moisture content, Below left eye",[4]; before ingestion,48.0 ± 8.8
same,"Moisture content, Left upper arm",[4]; before ingestion,37.8 ± 7.8
same,"Moisture content, Poll",[4]; before ingestion,51.3 ± 5.6
same,"moisture content at the site below the left eye, change","[4]; NAG group, 1,000 mg/day oral, 8 weeks",significant increase
same,"Acidity (pH), Below left eye",skin surface acidity; after 4 weeks,5.7 ± 0.5 pH
same,"Acidity (pH), Left upper arm",skin surface acidity; after 4 weeks,5.6 ± 0.3 pH
same,"Acidity (pH), Poll",skin surface acidity; after 4 weeks,5.4 ± 0.3 pH
same,"Acidity (pH), Below left eye",skin surface acidity; after 8 weeks,5.8 ± 0.4 pH
same,"Acidity (pH), Left upper arm",skin surface acidity; after 8 weeks,5.7 ± 0.4 pH
same,"Acidity (pH), Poll",skin surface acidity; after 8 weeks,5.3 ± 0.4 pH
same,"Acidity (pH), Left upper arm",skin surface acidity; before ingestion,5.5 ± 0.3 pH
same,"Acidity (pH), Poll",skin surface acidity; before ingestion,5.7 ± 1.1 pH
same,"Acidity (pH), Below left eye","skin surface acidity; before ingestion, optimum pH about 5.5",6.0 ± 1.0 pH
